Test results from patent US20260166122A1, “USE OF MICROPEPTIDE MIAC” (NANJING ANJI BIOTECHNOLOGY CO., LTD, priority 2023, published 2026).
Where two headings read alike, the source gives them in different places. Marks after values point to notes of the source that are not given here. Ends that are not written are not given here.

Key:
Assay type in all cases: cell-based
Conditions in all cases: 72 h
[1] = test system: human diffuse large B-cell lymphoma cells U2932
Protocol: (§1) Human pancreatic cancer, hepatocellular carcinoma, colorectal cancer, ovarian cancer, cervical cancer, bladder cancer, melanoma, glioblastoma, neuroblastoma, glioma, osteosarcoma, myeloma, lymphoma, hematologic malignancies, and cholangiocarcinoma cells were cultured in an incubator at 37° C. with 5% CO2 until the density reached 90%, then digested and collected with trypsin, resuspended in a culture medium, and counted under a microscope; the cell concentration was adjusted to about 1.0×10^5 cells/mL; and the cell suspension was inoculated into a 96-well plate, with 100 μL per well, and incubated overnight in an incubator at 37° C. with 5% CO2. After the cells were completely attached to the wall, 100 μL of micropeptides MIAC with concentrations of 50 μM, 100 μM and 200 μM were added to form an administration group; and a culture medium without any medicament was used as a negative control group. After continuing incubation for 72 h, 100 μL of CCK8 was added to each well of the 96-well plate for dissolving. The absorbance OD was measured at a detection wavelength of 450 nm with a microplate reader, and the proliferation inhibition (PI) was calculated using the formula of PI (%)=1-administration group/negative control group. The experiment was repeated 3 times independently, the results were expressed as Mean±SD, and a statistical T test was performed, where *P<0.05 indicated a significant difference and **P<0.01 indicated an extremely significant difference.

[2] = test system: human malignant melanoma cells SK-mel-2
Protocol: as §1

[3] = test system: human bladder cancer cells EJ
Protocol: as §1

[4] = test system: human colon cancer cells HCT-116
Protocol: as §1

[5] = test system: human hepatocellular carcinoma cells QGY-7701
Protocol: as §1

[6] = test system: peripheral blood B lymphocytes RPMI-8226 in human multiple myeloma
Protocol: as §1

[7] = test system: human lymphoma cells Raji
Protocol: as §1

[8] = test system: human T-cell acute lymphoblastic leukemia cells JurKat
Protocol: as §1

[9] = test system: human acute non-T non-B lymphocytic leukemia cells Reh
Protocol: as §1

[10] = test system: human osteogenic sarcoma cells Saos-2
Protocol: as §1

[11] = test system: human colon cancer cells LOVO
Protocol: as §1

[12] = test system: human histiocytic lymphoma cells U937
Protocol: as §1

[13] = test system: human pancreatic cancer cells Aspc-1
Protocol: as §1

[14] = test system: human cervical cancer cells Hela
Protocol: as §1

[15] = test system: human ovarian cancer cells A2780
Protocol: as §1

[16] = test system: human myeloma cells NCI-H929
Protocol: as §1

[17] = test system: human pancreatic cancer cells PANC-1
Protocol: as §1

[18] = test system: human hepatocellular carcinoma cells HCCLM3
Protocol: as §1

[19] = test system: human myeloma cells ARP-1
Protocol: as §1

[20] = test system: human glioma cells SHG-44
Protocol: as §1

[21] = test system: human cervical cancer cells SIHA
Protocol: as §1

[22] = test system: human cholangiocarcinoma cells QBC939
Protocol: as §1

[23] = test system: human hepatocellular carcinoma cells HepG2
Protocol: as §1

Q: “MERAGVPGFSPRRSSVEAKMQSTSCSVRKSSTVTAWPAVVLLLSWGQRRGG [MIAC, micropeptide inhibiting actin cytoskeleton]” was tested. Which OD ([1]; U2932, 50 μM) did it give?
A: Its OD is 0.426 ± 0.019**.

Q: And the OD ([1]; U2932, 100 μM)?
A: Its OD is 0.275 ± 0.038**.

Q: What about the OD ([1]; U2932, 200 μM) of the same sequence?
A: Its OD is 0.167 ± 0.025**.

Q: What about the OD ([2]; SK-mel-2, 50 μM) of the same sequence?
A: The OD was 1.302 ± 0.043**.

Q: What about the OD ([2]; SK-mel-2, 100 μM) of the same sequence?
A: Its OD is 0.822 ± 0.060**.

Q: What about the OD ([2]; SK-mel-2, 200 μM) of the same sequence?
A: The OD was 0.570 ± 0.011**.

Q: What about the OD ([3]; 50 μM) of the same sequence?
A: The OD was 1.126 ± 0.017.

Q: What about the OD ([3]; 100 μM) of the same sequence?
A: The OD was 0.891 ± 0.009**.

Q: What about the OD ([3]; 200 μM) of the same sequence?
A: The OD was 0.628 ± 0.045**.

Q: What about the OD ([4]; HCT-116, 50 μM) of the same sequence?
A: The OD was 1.253 ± 0.019**.

Q: What about the OD ([4]; HCT-116, 100 μM) of the same sequence?
A: Its OD is 0.976 ± 0.038**.

Q: And the OD ([4]; HCT-116, 200 μM)?
A: The OD was 0.688 ± 0.047**.

Q: And the OD ([5]; QGY-7701, 50 μM)?
A: Its OD is 1.185 ± 0.018**.

Q: And the OD ([5]; QGY-7701, 100 μM)?
A: Its OD is 0.785 ± 0.030**.

Q: And the OD ([5]; QGY-7701, 200 μM)?
A: Its OD is 0.520 ± 0.019**.

Q: What about the OD ([6]; RPMI-8226, 50 μM) of the same sequence?
A: The OD was 2.008 ± 0.023.

Q: What about the OD ([6]; RPMI-8226, 100 μM) of the same sequence?
A: The OD was 1.001 ± 0.027**.

Q: And the OD ([6]; RPMI-8226, 200 μM)?
A: The OD was 0.522 ± 0.028**.

Q: And the OD ([7]; 50 μM)?
A: Its OD is 0.964 ± 0.037.

Q: What about the OD ([7]; 100 μM) of the same sequence?
A: Its OD is 0.687 ± 0.019**.

Q: And the OD ([7]; 200 μM)?
A: Its OD is 0.421 ± 0.029**.

Q: What about the OD ([8]; 50 μM) of the same sequence?
A: Its OD is 0.984 ± 0.032.

Q: What about the OD ([8]; 100 μM) of the same sequence?
A: Its OD is 0.730 ± 0.032**.

Q: And the OD ([8]; 200 μM)?
A: The OD was 0.559 ± 0.038**.

Q: And the OD ([9]; 50 μM)?
A: The OD was 0.964 ± 0.037.

Q: And the OD ([9]; 100 μM)?
A: Its OD is 0.687 ± 0.019**.

Q: And the OD ([9]; 200 μM)?
A: The OD was 0.421 ± 0.029**.

Q: And the OD ([10]; Saos-2, 50 μM)?
A: Its OD is 1.198 ± 0.067.

Q: And the OD ([10]; Saos-2, 100 μM)?
A: Its OD is 0.946 ± 0.016**.

Q: And the OD ([10]; Saos-2, 200 μM)?
A: The OD was 0.627 ± 0.052**.

Q: What about the OD ([11]; 50 μM) of the same sequence?
A: The OD was 1.148 ± 0.008**.

Q: What about the OD ([11]; 100 μM) of the same sequence?
A: The OD was 0.970 ± 0.021**.

Q: And the OD ([11]; 200 μM)?
A: Its OD is 0.624 ± 0.026**.

Q: What about the OD ([12]; U937, 50 μM) of the same sequence?
A: Its OD is 1.069 ± 0.028.

Q: What about the OD ([12]; U937, 100 μM) of the same sequence?
A: The OD was 0.821 ± 0.047**.

Q: What about the OD ([12]; U937, 200 μM) of the same sequence?
A: Its OD is 0.684 ± 0.046**.

Q: What about the OD ([13]; Aspc-1, 50 μM) of the same sequence?
A: The OD was 0.939 ± 0.015.

Q: And the OD ([13]; Aspc-1, 100 μM)?
A: Its OD is 0.711 ± 0.047**.

Q: And the OD ([13]; Aspc-1, 200 μM)?
A: The OD was 0.509 ± 0.019**.

Q: What about the OD ([14]; 50 μM) of the same sequence?
A: The OD was 0.954 ± 0.041**.

Q: And the OD ([14]; 100 μM)?
A: The OD was 0.801 ± 0.039**.

Q: And the OD ([14]; 200 μM)?
A: The OD was 0.532 ± 0.066**.

Q: What about the OD ([15]; A2780, 50 μM) of the same sequence?
A: Its OD is 0.985 ± 0.046**.

Q: What about the OD ([15]; A2780, 100 μM) of the same sequence?
A: The OD was 0.791 ± 0.067**.

Q: What about the OD ([15]; A2780, 200 μM) of the same sequence?
A: Its OD is 0.441 ± 0.018**.

Q: What about the OD ([16]; NCI-H929, 50 μM) of the same sequence?
A: Its OD is 0.860 ± 0.012**.

Q: What about the OD ([16]; NCI-H929, 100 μM) of the same sequence?
A: The OD was 0.427 ± 0.016**.

Q: And the OD ([16]; NCI-H929, 200 μM)?
A: Its OD is 0.263 ± 0.026**.

Q: What about the OD ([17]; PANC-1, 50 μM) of the same sequence?
A: Its OD is 1.027 ± 0.073.

Q: What about the OD ([17]; PANC-1, 100 μM) of the same sequence?
A: Its OD is 0.708 ± 0.043**.

Q: And the OD ([17]; PANC-1, 200 μM)?
A: The OD was 0.427 ± 0.02**.

Q: What about the OD ([18]; HCCLM3, 50 μM) of the same sequence?
A: The OD was 1.420 ± 0.054.

Q: And the OD ([18]; HCCLM3, 100 μM)?
A: Its OD is 0.981 ± 0.019**.

Q: What about the OD ([18]; HCCLM3, 200 μM) of the same sequence?
A: The OD was 0.706 ± 0.041**.

Q: And the OD ([19]; ARP-1, 50 μM)?
A: The OD was 0.985 ± 0.008.

Q: What about the OD ([19]; ARP-1, 100 μM) of the same sequence?
A: Its OD is 0.692 ± 0.047**.

Q: And the OD ([19]; ARP-1, 200 μM)?
A: Its OD is 0.433 ± 0.013**.

Q: What about the OD ([20]; SHG-44, 50 μM) of the same sequence?
A: Its OD is 1.201 ± 0.026.

Q: What about the OD ([20]; SHG-44, 100 μM) of the same sequence?
A: Its OD is 0.838 ± 0.067**.

Q: And the OD ([20]; SHG-44, 200 μM)?
A: The OD was 0.393 ± 0.021**.

Q: And the OD ([21]; 50 μM)?
A: Its OD is 0.844 ± 0.099**.

Q: And the OD ([21]; 100 μM)?
A: Its OD is 0.755 ± 0.103**.

Q: What about the OD ([21]; 200 μM) of the same sequence?
A: Its OD is 0.261 ± 0.052**.

Q: What about the OD ([22]; QBC939, 50 μM) of the same sequence?
A: Its OD is 1.13 ± 0.053.

Q: What about the OD ([22]; QBC939, 100 μM) of the same sequence?
A: Its OD is 0.757 ± 0.028**.

Q: And the OD ([22]; QBC939, 200 μM)?
A: The OD was 0.468 ± 0.045**.

Q: And the OD ([23]; HepG2, 50 μM)?
A: Its OD is 0.575 ± 0.047**.

Q: What about the OD ([23]; HepG2, 100 μM) of the same sequence?
A: The OD was 0.267 ± 0.022**.

Q: And the OD ([23]; HepG2, 200 μM)?
A: The OD was 0.169 ± 0.015**.
